Laboratory results published in US10166197B2, “Sugar ester nanoparticle stabilizers” (St. John's University, priority 2015, dated 2019).

Experiment: Dispersion test, USP apparatus II (paddle method), 0.45 μm filtration and HPLC
Type: physicochemical
Settings: 0.45 μm pore size filter
Procedure: Dispersion tests were then run on each of the dosage forms using USP apparatus II (the paddle method). Dried samples corresponding to 20 mg of the lyophilized powder were weighed and mixed with 2% SLS and placed into 250 mL of dissolution media with a holding temperature at 37±0.5° C. The rotation speed of the paddle was set to 50 rpm. The dispersion test was performed in two steps: stimulated gastric fluid (pH 1.2) for up to 120 minutes, and changing the pH to pH 6.8 after that by adding 1N NaOH. This is to mimic the gastrointestinal pH conditions. Aliquots of the suspension were taken after 1, 3, 5, 10, 15, 30, 60, 120, 150, and 180 minutes. The aliquots were then filtered through a hydrophilic PTFE membrane filter with 0.45 μm pore size, diluted appropriately with an organic solvent to dissolve drug particles and analyzed for drug content by HPLC.
Dispersion tests were also performed on capsules and tablets of the lyophilized powder.

For `CC(C)(Sc1cc(C(C)(C)C)c(O)c(C(C)(C)C)c1)Sc1cc(C(C)(C)C)c(O)c(C(C)(C)C)c1` [neat probucol powder, probucol], the “drug dispersion (result in words)” value was “did not demonstrate any drug dispersion”.
